Results taken from ChEMBL document CHEMBL5030507, “Structure-Based Design of a Selective Class I Histone Deacetylase (HDAC) Near-Infrared (NIR) Probe for Epigenetic Regulation Detection in Triple-Negative Breast Cancer (TNBC)” (J Med Chem, 2021).

Tests used:
MDA-MB-231 = assay: Antiproliferative activity against triple-negative human MDA-MB-231 cells assessed as cell growth inhibition incubated for 72 hrs by CCK8 assay; assay type: functional
[1] = biological target: T1, Protein deacetylase HDAC6 (Homo sapiens, UniProt Q9UBN7); assay: Inhibition of recombinant human full length N-terminal GST-tagged HDAC6 expressed in Sf9 cells using fluorogenic substrate measured after 60 mins by FRET assay
T1 sequence (Q9UBN7 whole entry): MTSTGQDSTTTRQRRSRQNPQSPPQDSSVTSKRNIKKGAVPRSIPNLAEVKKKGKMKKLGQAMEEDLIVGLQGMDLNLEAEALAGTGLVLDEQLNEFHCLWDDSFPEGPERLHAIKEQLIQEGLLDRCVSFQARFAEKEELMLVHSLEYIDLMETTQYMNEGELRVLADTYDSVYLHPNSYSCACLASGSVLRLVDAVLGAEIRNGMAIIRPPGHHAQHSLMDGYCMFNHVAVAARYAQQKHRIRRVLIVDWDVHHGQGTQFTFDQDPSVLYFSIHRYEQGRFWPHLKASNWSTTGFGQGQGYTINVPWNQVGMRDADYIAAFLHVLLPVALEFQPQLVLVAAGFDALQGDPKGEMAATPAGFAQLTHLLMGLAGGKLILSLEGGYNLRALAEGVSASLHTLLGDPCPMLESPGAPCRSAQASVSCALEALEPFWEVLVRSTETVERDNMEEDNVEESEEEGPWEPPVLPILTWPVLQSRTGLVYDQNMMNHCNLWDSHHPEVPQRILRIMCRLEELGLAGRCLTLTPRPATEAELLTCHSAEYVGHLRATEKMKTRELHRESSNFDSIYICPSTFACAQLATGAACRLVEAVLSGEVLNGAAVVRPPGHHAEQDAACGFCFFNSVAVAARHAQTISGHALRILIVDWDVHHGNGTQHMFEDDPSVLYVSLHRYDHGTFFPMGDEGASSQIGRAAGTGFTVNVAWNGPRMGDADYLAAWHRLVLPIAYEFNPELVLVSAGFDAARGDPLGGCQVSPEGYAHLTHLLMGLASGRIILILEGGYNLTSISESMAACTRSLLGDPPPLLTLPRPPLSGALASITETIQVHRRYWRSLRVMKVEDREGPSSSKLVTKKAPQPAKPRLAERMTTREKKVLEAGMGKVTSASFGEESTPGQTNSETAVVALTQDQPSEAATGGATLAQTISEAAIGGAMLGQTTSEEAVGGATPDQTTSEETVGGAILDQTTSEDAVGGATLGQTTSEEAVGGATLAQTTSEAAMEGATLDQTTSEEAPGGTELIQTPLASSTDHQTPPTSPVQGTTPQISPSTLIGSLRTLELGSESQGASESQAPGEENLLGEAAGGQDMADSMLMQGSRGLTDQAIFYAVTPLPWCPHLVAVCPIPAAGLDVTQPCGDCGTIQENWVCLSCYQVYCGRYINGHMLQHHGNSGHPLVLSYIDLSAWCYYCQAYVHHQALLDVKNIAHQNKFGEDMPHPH

Histone deacetylase 11 = biological target: T2, Histone deacetylase 11 (Homo sapiens, UniProt Q96DB2); assay: Inhibition of recombinant human full length HDAC11 expressed in baculovirus infected Sf9 cells measured after 60 mins by FRET assay
T2 sequence (Q96DB2 whole entry): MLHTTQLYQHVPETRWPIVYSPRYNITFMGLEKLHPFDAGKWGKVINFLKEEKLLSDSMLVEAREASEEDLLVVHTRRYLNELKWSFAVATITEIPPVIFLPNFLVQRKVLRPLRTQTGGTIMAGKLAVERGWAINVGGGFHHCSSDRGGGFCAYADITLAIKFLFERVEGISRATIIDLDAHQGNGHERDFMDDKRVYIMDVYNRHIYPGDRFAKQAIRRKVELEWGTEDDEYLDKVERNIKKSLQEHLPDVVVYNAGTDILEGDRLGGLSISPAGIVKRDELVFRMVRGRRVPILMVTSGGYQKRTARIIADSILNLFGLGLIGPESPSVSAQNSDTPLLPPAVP

Histone deacetylase 1 = Histone deacetylase 1 (Homo sapiens, UniProt Q13547); assay: Inhibition of recombinant human C-terminal FLAG/His-tagged HDAC1 (1 to 482 residues) expressed in Sf9 insect cells using fluorometric substrate measured after 60 mins by FRET assay
[2] = Cytotoxicity against human WI-38 cells assessed as cell growth inhibition incubated for 72 hrs by CCK8 assay; assay type: cell-based
Histone deacetylase 8 = biological target: T3, Histone deacetylase 8 (Homo sapiens, UniProt Q9BY41); assay: Inhibition of recombinant human full length C-terminal His-tagged HDAC8 expressed in baculovirus infected Sf9 insect cells using fluorometric substrate measured after 60 mins by FRET assay
T3 sequence (Q9BY41 whole entry): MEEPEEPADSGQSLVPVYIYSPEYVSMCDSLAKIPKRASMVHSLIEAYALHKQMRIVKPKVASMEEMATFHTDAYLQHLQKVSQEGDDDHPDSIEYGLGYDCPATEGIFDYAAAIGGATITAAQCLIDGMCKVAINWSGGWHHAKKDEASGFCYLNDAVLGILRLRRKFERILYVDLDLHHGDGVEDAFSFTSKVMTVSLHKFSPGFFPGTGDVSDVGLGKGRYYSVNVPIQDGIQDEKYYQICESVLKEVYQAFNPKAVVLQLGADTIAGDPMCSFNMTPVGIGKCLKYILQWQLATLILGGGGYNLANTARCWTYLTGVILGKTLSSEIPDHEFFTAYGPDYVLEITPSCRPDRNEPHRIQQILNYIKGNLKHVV

Histone deacetylase 5 = Histone deacetylase 5 (Homo sapiens, UniProt Q9UQL6); assay: Inhibition of recombinant human full length N-terminal GST-tagged HDAC5 expressed in baculovirus infected Sf9 insect cells using fluorogenic substrate measured after 60 mins by FRET assay
Histone deacetylase 9 = Histone deacetylase 9 (Homo sapiens, UniProt Q9UKV0); assay: Inhibition of recombinant human C-terminal His-tagged HDAC9 (604 to 1066 residues) expressed in baculovirus infected Sf9 insect cells using fluorogenic substrate measured after 60 mins by FRET assay
Histone deacetylase 4 = Histone deacetylase 4 (Homo sapiens, UniProt P56524); assay: Inhibition of recombinant human N-terminal GST-tagged/C-terminal His-tagged HDAC4 (627 to 1084 residues) expressed in baculovirus infected Sf9 insect cells using fluorogenic substrate measured after 60 mins by FRET assay
[3] = biological target: Histone deacetylase 3/Nuclear receptor corepressor 2 (HDAC3/NCoR2) (Homo sapiens, UniProt O15379); assay: Inhibition of C-terminal His-tagged recombinant human HDAC3 (1 to 428 residues)/N-terminal GST-tagged recombinant human NCoR2 (395 to 489 residues) co-expressed in baculovirus infected Sf9 cells using fluorometric substrate measured after 60 mins by FRET assay
[4] = Selectivity index, ratio of GI50 for cytotoxicity against human WI-38 cells to GI50 for antiproliferative activity against triple-negative human MDA-MB-231 cells; assay type: toxicity, cell-based; details: WI-38 cells versus MDA-MB-231 cells, read-out: RatioGI50

Sequence of Histone deacetylase 4 (P56524 whole entry, the tested form may be a part): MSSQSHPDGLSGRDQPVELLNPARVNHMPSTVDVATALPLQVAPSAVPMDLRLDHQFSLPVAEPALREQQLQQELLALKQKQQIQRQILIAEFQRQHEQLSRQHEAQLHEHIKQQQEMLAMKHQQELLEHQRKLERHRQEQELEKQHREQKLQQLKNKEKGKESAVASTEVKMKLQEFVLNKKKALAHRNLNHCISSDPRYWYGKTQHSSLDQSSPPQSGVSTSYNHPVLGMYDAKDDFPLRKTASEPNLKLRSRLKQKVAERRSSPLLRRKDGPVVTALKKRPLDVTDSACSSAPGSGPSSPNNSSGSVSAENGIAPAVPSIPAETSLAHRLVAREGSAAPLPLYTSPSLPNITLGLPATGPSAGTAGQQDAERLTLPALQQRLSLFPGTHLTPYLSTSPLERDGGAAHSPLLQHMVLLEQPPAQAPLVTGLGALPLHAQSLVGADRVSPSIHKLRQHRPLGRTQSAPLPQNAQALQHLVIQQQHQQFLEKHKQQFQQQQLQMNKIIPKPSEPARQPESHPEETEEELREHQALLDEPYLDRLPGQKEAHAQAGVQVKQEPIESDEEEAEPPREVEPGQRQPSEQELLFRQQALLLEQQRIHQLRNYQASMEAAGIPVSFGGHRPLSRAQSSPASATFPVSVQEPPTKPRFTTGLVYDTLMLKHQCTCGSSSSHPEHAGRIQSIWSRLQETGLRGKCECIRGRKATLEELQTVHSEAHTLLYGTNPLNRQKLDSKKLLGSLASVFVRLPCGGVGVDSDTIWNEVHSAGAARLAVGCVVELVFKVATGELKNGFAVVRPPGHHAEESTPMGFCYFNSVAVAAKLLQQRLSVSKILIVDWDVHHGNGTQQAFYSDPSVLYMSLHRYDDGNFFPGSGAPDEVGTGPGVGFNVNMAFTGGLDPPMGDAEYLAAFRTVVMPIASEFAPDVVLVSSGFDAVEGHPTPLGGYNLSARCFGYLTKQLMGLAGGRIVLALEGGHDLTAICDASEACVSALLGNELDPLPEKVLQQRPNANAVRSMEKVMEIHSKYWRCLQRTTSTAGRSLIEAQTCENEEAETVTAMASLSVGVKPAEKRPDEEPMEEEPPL
Sequence of Histone deacetylase 3/Nuclear receptor corepressor 2 (HDAC3/NCoR2) (O15379 whole entry, the tested form may be a part): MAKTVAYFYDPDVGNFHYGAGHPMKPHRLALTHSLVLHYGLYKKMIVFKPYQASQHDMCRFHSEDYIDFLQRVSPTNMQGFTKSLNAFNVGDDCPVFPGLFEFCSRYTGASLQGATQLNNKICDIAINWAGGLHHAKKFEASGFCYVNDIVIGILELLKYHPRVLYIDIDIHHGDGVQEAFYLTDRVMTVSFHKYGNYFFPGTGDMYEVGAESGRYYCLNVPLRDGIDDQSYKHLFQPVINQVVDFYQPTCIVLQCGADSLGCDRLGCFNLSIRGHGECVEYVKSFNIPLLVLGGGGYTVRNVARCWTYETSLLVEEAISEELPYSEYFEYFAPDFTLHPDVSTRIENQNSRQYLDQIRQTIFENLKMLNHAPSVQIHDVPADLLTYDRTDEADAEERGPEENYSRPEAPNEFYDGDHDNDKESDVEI
Sequence of Histone deacetylase 3/Nuclear receptor corepressor 2 (HDAC3/NCoR2) (Q9Y618 whole entry, further chain, the tested form may be a part): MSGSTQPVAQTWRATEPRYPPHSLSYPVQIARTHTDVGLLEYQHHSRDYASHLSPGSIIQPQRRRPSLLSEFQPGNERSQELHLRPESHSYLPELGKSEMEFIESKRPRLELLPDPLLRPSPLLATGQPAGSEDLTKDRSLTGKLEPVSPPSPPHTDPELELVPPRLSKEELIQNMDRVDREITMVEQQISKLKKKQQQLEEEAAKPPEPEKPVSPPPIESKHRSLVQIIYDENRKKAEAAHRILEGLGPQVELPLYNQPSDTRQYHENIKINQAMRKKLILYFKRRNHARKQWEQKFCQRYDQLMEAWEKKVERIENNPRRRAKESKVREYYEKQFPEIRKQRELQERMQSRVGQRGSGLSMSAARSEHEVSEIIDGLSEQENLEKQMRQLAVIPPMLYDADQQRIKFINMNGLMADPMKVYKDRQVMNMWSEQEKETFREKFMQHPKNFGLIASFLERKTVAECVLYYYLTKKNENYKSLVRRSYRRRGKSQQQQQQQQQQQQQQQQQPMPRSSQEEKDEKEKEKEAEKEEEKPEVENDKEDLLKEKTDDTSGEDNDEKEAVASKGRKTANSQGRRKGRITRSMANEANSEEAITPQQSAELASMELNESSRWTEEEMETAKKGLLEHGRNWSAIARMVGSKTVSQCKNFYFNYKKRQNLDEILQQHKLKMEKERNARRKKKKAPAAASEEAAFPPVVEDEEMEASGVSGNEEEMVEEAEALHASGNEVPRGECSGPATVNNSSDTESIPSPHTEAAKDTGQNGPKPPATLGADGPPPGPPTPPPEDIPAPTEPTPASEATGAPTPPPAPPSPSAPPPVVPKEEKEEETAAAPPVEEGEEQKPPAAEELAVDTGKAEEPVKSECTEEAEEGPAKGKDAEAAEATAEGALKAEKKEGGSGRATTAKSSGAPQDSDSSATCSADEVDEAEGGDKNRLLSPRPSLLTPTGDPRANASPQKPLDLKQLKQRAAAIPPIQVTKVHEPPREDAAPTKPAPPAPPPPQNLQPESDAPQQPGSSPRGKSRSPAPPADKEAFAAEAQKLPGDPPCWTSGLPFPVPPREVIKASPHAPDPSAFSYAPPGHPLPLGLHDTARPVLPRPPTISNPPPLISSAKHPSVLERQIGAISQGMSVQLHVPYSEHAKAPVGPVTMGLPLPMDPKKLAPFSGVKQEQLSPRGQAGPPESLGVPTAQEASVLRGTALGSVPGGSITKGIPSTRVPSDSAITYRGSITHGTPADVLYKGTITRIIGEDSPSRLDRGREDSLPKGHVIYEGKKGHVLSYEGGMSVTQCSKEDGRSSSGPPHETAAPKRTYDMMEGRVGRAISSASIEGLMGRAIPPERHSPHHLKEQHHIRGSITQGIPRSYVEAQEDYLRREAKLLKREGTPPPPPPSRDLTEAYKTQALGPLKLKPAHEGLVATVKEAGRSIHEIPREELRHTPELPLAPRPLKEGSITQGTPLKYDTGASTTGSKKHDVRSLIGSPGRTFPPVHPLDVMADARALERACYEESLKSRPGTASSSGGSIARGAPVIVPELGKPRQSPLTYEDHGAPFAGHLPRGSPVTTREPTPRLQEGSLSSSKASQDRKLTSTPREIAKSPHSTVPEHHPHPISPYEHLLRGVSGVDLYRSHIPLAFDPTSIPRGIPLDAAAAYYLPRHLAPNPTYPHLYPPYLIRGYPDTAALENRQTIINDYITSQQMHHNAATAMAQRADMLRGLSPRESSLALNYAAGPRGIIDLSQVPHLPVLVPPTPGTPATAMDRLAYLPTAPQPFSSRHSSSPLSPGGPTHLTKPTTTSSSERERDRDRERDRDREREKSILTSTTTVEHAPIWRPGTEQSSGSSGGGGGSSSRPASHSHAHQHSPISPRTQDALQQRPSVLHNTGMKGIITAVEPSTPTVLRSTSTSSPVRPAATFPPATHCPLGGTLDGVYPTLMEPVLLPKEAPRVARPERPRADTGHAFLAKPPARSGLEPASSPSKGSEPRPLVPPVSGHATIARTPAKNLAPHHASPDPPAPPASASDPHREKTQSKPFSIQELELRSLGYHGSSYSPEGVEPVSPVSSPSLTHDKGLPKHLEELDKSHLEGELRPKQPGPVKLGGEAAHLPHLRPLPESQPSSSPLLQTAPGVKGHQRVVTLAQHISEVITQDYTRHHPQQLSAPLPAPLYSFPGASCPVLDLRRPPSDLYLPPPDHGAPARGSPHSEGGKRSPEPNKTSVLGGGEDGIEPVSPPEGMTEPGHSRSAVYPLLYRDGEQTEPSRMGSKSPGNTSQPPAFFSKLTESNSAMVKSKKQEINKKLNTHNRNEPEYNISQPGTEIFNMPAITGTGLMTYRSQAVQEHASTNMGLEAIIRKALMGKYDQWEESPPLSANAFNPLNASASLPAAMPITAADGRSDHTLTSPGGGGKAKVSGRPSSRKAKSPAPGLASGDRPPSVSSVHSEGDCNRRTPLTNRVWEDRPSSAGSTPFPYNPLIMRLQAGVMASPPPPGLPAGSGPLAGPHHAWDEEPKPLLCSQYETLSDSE
Sequence of Histone deacetylase 5 (Q9UQL6 whole entry, the tested form may be a part): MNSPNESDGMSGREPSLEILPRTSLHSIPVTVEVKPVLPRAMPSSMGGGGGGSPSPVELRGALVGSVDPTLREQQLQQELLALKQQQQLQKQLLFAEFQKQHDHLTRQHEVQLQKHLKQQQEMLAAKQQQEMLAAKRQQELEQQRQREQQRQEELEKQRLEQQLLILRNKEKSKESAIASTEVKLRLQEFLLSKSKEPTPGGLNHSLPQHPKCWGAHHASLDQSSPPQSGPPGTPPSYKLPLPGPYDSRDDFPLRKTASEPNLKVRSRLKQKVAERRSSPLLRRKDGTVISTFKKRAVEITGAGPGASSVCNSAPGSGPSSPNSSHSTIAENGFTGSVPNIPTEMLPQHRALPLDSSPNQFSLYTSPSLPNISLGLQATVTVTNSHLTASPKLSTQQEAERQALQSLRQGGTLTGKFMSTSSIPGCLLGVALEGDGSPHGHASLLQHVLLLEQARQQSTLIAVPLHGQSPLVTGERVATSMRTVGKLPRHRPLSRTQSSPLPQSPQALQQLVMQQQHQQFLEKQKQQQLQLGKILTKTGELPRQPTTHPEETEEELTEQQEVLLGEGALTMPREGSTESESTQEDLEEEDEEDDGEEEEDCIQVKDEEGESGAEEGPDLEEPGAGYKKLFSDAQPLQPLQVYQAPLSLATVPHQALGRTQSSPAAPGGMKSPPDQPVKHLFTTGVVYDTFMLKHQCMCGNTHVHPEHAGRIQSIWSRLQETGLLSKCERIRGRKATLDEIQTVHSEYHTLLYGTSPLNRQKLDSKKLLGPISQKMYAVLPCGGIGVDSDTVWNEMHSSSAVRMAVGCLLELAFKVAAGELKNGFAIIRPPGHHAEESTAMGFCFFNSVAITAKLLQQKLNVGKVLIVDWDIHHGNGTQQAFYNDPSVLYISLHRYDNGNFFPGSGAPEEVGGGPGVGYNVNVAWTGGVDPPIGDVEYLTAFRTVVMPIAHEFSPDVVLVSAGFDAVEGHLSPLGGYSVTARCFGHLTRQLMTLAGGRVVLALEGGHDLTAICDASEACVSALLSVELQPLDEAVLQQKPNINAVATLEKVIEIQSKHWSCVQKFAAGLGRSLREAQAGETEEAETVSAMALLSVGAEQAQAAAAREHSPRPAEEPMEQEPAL

**Q.** Which GI50 (MDA-MB-231) does the source give for `C/C=C1\NC(=O)c2csc(n2)CNC(=O)C[C@@H](/C=C/CCSSCCCCCCC)OC(=O)[C@H](CCCCN)NC1=O` here?
**A.** 11.9 nM

**Q.** And the IC50 [1]?
**A.** > 10000 nM

**Q.** What about the IC50 (Histone deacetylase 11) of the same molecule?
**A.** > 10000 nM

**Q.** What about the IC50 (Histone deacetylase 1) of the same molecule?
**A.** 5.8 nM

**Q.** What about the GI50 at 72 h [2] of the same molecule?
**A.** 2320 nM

**Q.** And the IC50 (Histone deacetylase 8)?
**A.** > 10000 nM

**Q.** What about the IC50 (Histone deacetylase 5) of the same molecule?
**A.** > 10000 nM

**Q.** And the IC50 (Histone deacetylase 9)?
**A.** > 10000 nM

**Q.** What about the IC50 (Histone deacetylase 4) of the same molecule?
**A.** > 10000 nM

**Q.** What about the IC50 [3] of the same molecule?
**A.** 10.3 nM

**Q.** And the selectivity ratio [4]?
**A.** 194
